Measured values as given in patent US20200360391A1, “Medicinal Composition for Treating Intractable Heart Disease” (Osaka University, priority 2016, published 2020).

Columns and labels:
[1] = test system: spontaneous dilated cardiomyopathy (J2N-k) hamster model; assay: Spontaneous dilated cardiomyopathy (J2N-k) hamster model, 8-week administration from 20 weeks of age (Tests 1-3): echocardiography, body weight
In short: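 Male J2N-k δ-glycan-deficient hamsters (delivered at 18 weeks; 2-week acclimation) were dosed by oral gavage twice daily for 8 weeks in 0.5% CMC-Na (G in distilled water; 5 mL/kg) at human-equivalent doses, e.g. cilostazol 1.7 mg/kg. Camostat PLGA preparation was given 10 mg/kg s.c. every 4 weeks. Echocardiographic EF/FS changes from baseline were assessed at 4 and 8 weeks versus vehicle.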

rats = details: cited from earlier work
[2] = test system: lauric acid-induced rat hind limb circulatory disorder model; details: oral, 7 consecutive days; cited from earlier work
[3] = test system: rat coronary artery complete ischemia model; assay: Model of ischemia (MI) by rat coronary artery complete ligation (Tests 1 and 2): echocardiography, body weight; details: for Action on left ventricular systolic function: MI Test 1, 28-day repeated oral administration b.i.d., NOAEL-based doses
[4] = test system: canine rapid pacing severe dilated cardiomyopathy model; assay: Canine rapid pacing severe dilated cardiomyopathy model, long-term repeated oral administration; type: in vivo
Method: (§1) A sham operation was performed for a Sham group. After the pacemaker was operated, and it was confirmed in an electrocardiogram (Lead II) that the heartbeat was linked to the pulse rate, the incision site was sutured.
(§2) The animals were grouped evenly based on the cardiac function (EF) 4 weeks after rapid pacing. […] An empty capsule was administered to the control group in the same manner.
(§3) Electrocardiography (Lead II) was performed once a week during the period of induction of pathological condition (4 weeks). After administration of the test substance, electrocardiography was performed at the time of echocardiographic measurement. Examination with a stethoscope was performed every day. Specifically, the number of beats per 10 seconds was measured every day, and if an abnormality was found in examination with a stethoscope, an electrocardiogram was measured to confirm the presence or absence of pacing errors.
(§4) The general condition of the animals (death, posture, activity, color of gums, the presence or absence of ascites, feces, etc.) and food intake were observed every day (at the time of administration in the morning and in the evening, i.e., twice). […] The survival rate was observed twice daily for 6 months from the day of the start of administration of the test substance. Moribund animals were determined to be dead when they had no reaction in at least one item of examination of pinna, auditory, and nociception reflexes.
(§5) The body weight was measured on the date of implantation of the pacemaker, the date of operation of the pacemaker, and every week thereafter.
(§6) Echocardiographic measurement was performed before the preparation of the model (Pre); Week 4 (at the time of grouping) (before administration of the test substance); and 2 weeks, 4 weeks (1 month), 2 months, 3 months, 4 months, 5 months, and 6 months (at the time of dissection) after the start of administration of the test substance, as measurement points.
(§7) The echocardiographic measurement was performed without anesthesia, using an ultrasound imaging apparatus. A sector probe (10 MHz) was placed on the chest, and the diastolic left ventricular internal dimension (LVIDd), the systolic left ventricular internal dimension (LVIDs), the interventricular septal thickness at end-diastole (IVSTd), and the left ventricular posterior wall thickness in end diastole (LVPWd) were measured at M-mode. Moreover, the ejection fraction […] and the fractional shortening […] were calculated.

[5] = as above; type: in vivo; details: dog, in vivo; after oral administration, 3 mg/kg
Method: as §1, §2, §3, §4, §5, §6, §7

dogs = details: repeated oral administration in dogs; cited from earlier work
[6] = test system: spontaneous dilated cardiomyopathy (J2N-k) hamster model; assay: Long-term (36 weeks) administration in J2N-k hamster model: cardiac function, survival rate; type: in vivo
Method: ONO-1301 and (K) candesartan, which is ARB, were each individually orally administered to a δ-glycan-deficient spontaneous dilated cardiomyopathy (J2N-k) hamster model twice daily repeatedly for 36 weeks, after the onset of pathological condition (20 weeks old); and changes in cardiac function and survival rates in long-term administration were compared for evaluation. Specifically, echocardiographic measurement was performed after the onset of pathological condition (20 weeks old); the animals were grouped evenly based on the ejection fractions (EF values) and the body weights (Table 15), and each test substance was individually administered for 36 weeks.
The test was performed in the same manner as described in the section “1. Investigation of effects in spontaneous dilated cardiomyopathy (J2N-k) hamster model” above.
ONO-1301 was administered at 3 mg/kg twice per day. Candesartan was administered at 3 mg/kg once per day, and only vehicle was administered at the second administration. To the control group, vehicle (0.5% CMC-Na) was administered twice daily.

[7] = Test 2, p.o. b.i.d., NOAEL-based dose
[8] = MI Test 1, NOAEL doses, 1 Day (grouping), mean ± S.D.
[9] = MI Test 1, NOAEL doses, 7 Day, mean ± S.D.
[10] = MI Test 1, NOAEL doses, 14 Day, mean ± S.D.
[11] = MI Test 1, NOAEL doses, 21 Day, mean ± S.D.
[12] = MI Test 1, NOAEL doses, 29 Day, mean ± S.D.
[13] = Test 1, p.o. b.i.d., NOAEL-based dose

In the case of CC#CCC(C)[C@H](O)/C=C/[C@@H]1[C@H]2c3cccc(CCCC(=O)O)c3O[C@H]2C[C@H]1O (mixture of isomers) [Compound F, Beraprost sodium], the “Body weight 0 W” value ([1]; Test 2, at grouping) is reported as 119.9 g, the “LVIDd 4 W” value ([1]; Test 2, p.o. b.i.d.) is reported as 7.1 mm and the “LVIDd 8 W” value ([1]; Test 2, p.o. b.i.d.) is reported as 7.5 mm. For the same compound, the “LVIDs 4 W” value ([1]; Test 2, p.o. b.i.d.) was 5.9 mm, the “LVIDs 8 W” value ([1]; Test 2, p.o. b.i.d.) was 6.3 mm and the “% FS 4 W” value [1, 7] was “significantly higher”. The “% FS value of change at 4 W compared with 0 W” value [1, 7] was “significantly higher”, the “Body weight 1 W” value [1, 7] was 120.8 g and the “Body weight 2 W” value [1, 7] was 122.7 g. The “Body weight 3 W” value [1, 7] was 124.9 g, the “Body weight 4 W” value [1, 7] was 127.1 g and the “Body weight 5 W” value [1, 7] was 128.2 g. For the same compound, the “Body weight 6 W” value [1, 7] was 129.6 g, the “Body weight 7 W” value [1, 7] was 129.9 g and the “Body weight 8 W” value [1, 7] was 130.0 g. The “EF 4 W” value [1, 7] was “significantly higher”, the No-observed-effect level (rats; rats, 12 months) was 0.01 mg/kg/day and the “Dose at which toxic findings were observed” value (rats; repeated administration in rats, duration per compound) was ≥ 0.1 mg/kg/day. For the same compound, the “Dose significantly ameliorating the disorder of the hind limbs” value [2] was 300 µg/kg/day, the “Action on left ventricular systolic function” value [3] was “suppression action on the deterioration of left ventricular systolic function” and the “Body weight” value [3, 8] was 230.4 ± 3.3 g. The % FS: value of change compared with the value on Day 1 [3, 9] was 0%, the “Body weight” value [3, 9] was 232.3 ± 10.0 g and the EF: value of change compared with the value on Day 1 [3, 9] was 0%. The % FS: value of change compared with the value on Day 1 [3, 10] was -2%, the “Body weight” value [3, 10] was 252.6 ± 9.8 g and the EF: value of change compared with the value on Day 1 [3, 10] was -3%. The “Body weight” value [3, 11] was 272.9 ± 7.7 g, the % FS: value of change compared with the value on Day 1 [3, 12] was -3% and the “Body weight (g)” value [3, 12] was 295.4 ± 8.6 (7) g. The EF: value of change compared with the value on Day 1 [3, 12] was -6% and the “Body weight change compared with control group” value ([3]; MI Test 1, until Day 29) was “Significant body weight gain suppression”.

With O=C(O)COc1cccc2c1CCC=C2CCO/N=C(\c1ccccc1)c1cccnc1 [Compound A, (E)-[5-[2-[1-phenyl-1-(3-pyridyl)methylideneaminooxy]ethyl]-7,8-dihydronaphthalen-1-yloxy]acetic acid] the “Number of animals alive 26 weeks after start of administration” value ([4]; 3 mg/kg p.o. twice daily) was 1/6, the “Time after start of administration at which death was first observed” value ([4]; 3 mg/kg p.o. twice daily) was 44 days and the “Survival rate (Kaplan-Meier curve) compared with control” value ([4]; 3 mg/kg p.o. twice daily, 26 weeks) was “significant prolonging effect on the survival rate”. The “Amount of change (Δ) in EF compared with control” value ([4]; 2 weeks and 4 weeks after start of administration) was “significantly higher”, the “Body weight gain compared with control” value ([4]; 6 weeks and 8 weeks after start of administration) was “suppressed” and the “Effect on heart rate in echocardiography at Tmax” value ([4]; oral 3 mg/kg) was “no effect on the heart rate”. For the same compound, the Tmax [5] was 1.5 to 2.5 h, the No-observed-adverse-effect level (dogs) was 3 mg/kg and the “Effect in long-term administration compared with candesartan” value [6] was “effect superior to that of candesartan”. For the same compound, the “EF compared with control group” value ([6]; 3.0 mg/kg) was “significant improvement effect”, the “FS% compared with control group” value ([6]; 3.0 mg/kg) was “Significantly higher values” and the “Body weight 0 W” value ([1]; Test 1, at grouping) was 112.5 g. The “LVIDd 4 W” value ([1]; Test 1, p.o. b.i.d.) was 6.9 mm, the “LVIDd 8 W” value ([1]; Test 1, p.o. b.i.d.) was 7.6 mm and the “LVIDs 4 W” value ([1]; Test 1, p.o. b.i.d.) was 5.6 mm. The “LVIDs 8 W” value ([1]; Test 1, p.o. b.i.d.) was 6.2 mm, the “Body weight 4 W” value [1, 13] was 120.2 g and the “Body weight 8 W” value [1, 13] was 120.6 g. The No-observed-adverse-effect level (rats; repeated oral administration in rats) was 3 mg/kg, the “Action on left ventricular systolic function” value [3] was “suppression action on the deterioration of left ventricular systolic function” and the “Body weight” value [3, 8] was 231.4 ± 4.9 g. For the same compound, the % FS: value of change compared with the value on Day 1 [3, 9] was 1%, the “Body weight” value [3, 9] was 237.8 ± 15.0 g and the EF: value of change compared with the value on Day 1 [3, 9] was 1%. For the same compound, the % FS: value of change compared with the value on Day 1 [3, 10] was 0%, the “Body weight” value [3, 10] was 257.1 ± 20.7 g and the EF: value of change compared with the value on Day 1 [3, 10] was 0%. For the same compound, the “Body weight” value [3, 11] was 277.1 ± 17.3 g, the % FS: value of change compared with the value on Day 1 [3, 12] was -3% and the “Body weight” value [3, 12] was 293.6 ± 18.9 g. The EF: value of change compared with the value on Day 1 [3, 12] was -6%.
